{"source": "patent US4371521A", "about": "“Pharmaceutical composition for retarding excessive platelet aggregation” (priority 1973, dated 1983)", "key": {"[1]": {"experiment": "Acute toxicity (LD50) in male albino mice", "format": "in vivo", "conditions": "mouse, in vivo, Tainter and Miller, ± standard deviation"}, "[2]": {"experiment": "Pharmacological results of the single components", "conditions": "in the absence of the other component"}, "[3]": {"tested_on": "creatine-phosphokinase", "conditions": "various buffers and pHs, cited from earlier work"}, "[4]": {"tested_on": "male albino mice", "experiment": "Acute toxicity (LD50) in male albino mice", "format": "in vivo", "conditions": "Tainter and Miller, ± standard deviation"}}, "note": "Like-named read-outs stand apart in the source and are kept apart here.", "data": [{"compound": "CN(CC(=O)O)C(=N)NP(=O)(O)O", "note": "[CP, creatine-phosphate]", "values": [{"measurement": "LD50", "setting": "[1]", "result": "3500 ± 120", "unit": "mg/kg"}, {"measurement": "pharmacological results of the component alone", "setting": "[2]", "result": "Neither the substrate (CP) alone (i.e. in the absence of the administration of the enzyme which brings about its conversion) nor the enzyme (CPK) alone gives the pharmacological results"}, {"measurement": "Rmax", "setting": "[3]", "result": "1.1 μmols/minute/μg of protein"}, {"measurement": "Km", "setting": "[3]; read-out: Michaelis constant for creatine-phosphate", "result": 5000, "unit": "µM"}]}, {"compound": "CPK: enzyme found in striated and cardiac muscle and cerebral tissue; protein molecule of molecular weight 8.1×10^4; crystalline form from rabbit skeletal muscle", "values": [{"measurement": "LD50", "setting": "[4]", "result": "> 100", "unit": "mg/kg"}, {"measurement": "pharmacological results of the component alone", "setting": "[2]", "result": "Neither the substrate (CP) alone (i.e. in the absence of the administration of the enzyme which brings about its conversion) nor the enzyme (CPK) alone gives the pharmacological results"}]}, {"compound": "Nc1ncnc2c1ncn2[C@@H]1O[C@H](COP(=O)(O)OP(=O)(O)O)[C@@H](O)[C@H]1O", "note": "[ADP, adenosine-diphosphate, reference compound]", "values": [{"measurement": "Rmax", "setting": "[3]", "result": "1.7 μmols/minute/μg of protein"}, {"measurement": "Km", "setting": "[3]; read-out: Michaelis constant for ADP", "result": "800 to 1000", "unit": "µM"}]}]}
